Test: mn = molality of the nth substance listed, in mol/kg
Settings: 298.15 K, 101 kPa, Liquid, rubidium clock sound velocity meter

Nc1ncnc2c1ncn2[C@@H]1O[C@H](CO)[C@@H](O)[C@H]1O [β-adenosine] + O
Settings | speed of sound [m/s]
m1 = 0.01701 | 1497.8
m1 = 0.01736 | 1497.8
m1 = 0.01799 | 1497.8
m1 = 0.01851 | 1497.9
m1 = 0.01911 | 1497.9
m1 = 0.0195 | 1497.9
m1 = 0.02001 | 1498
m1 = 0.02054 | 1498
